# Measured values published in ChEMBL document CHEMBL4304796, “DPP1 Inhibitors: Exploring the Role of Water in the S2 Pocket of DPP1 with Substituted Pyrrolidines” (ACS Med Chem Lett, 2019).
# Molecular target: T1, Dipeptidyl peptidase 1 (Homo sapiens, UniProt P53634)
# Test: Inhibition of recombinant human DPPI using H-Gly-Arg-AFC as substrate preincubated for 30 mins followed by substrate addition measured after 60 mins by fluorescence plate reader analysis
# T1 sequence (P53634 25-134 limits assumed): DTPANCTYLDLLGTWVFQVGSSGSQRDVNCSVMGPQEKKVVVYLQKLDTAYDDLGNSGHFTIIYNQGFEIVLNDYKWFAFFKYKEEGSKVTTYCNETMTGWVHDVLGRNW
# T1 sequence (P53634 231-394 limits assumed): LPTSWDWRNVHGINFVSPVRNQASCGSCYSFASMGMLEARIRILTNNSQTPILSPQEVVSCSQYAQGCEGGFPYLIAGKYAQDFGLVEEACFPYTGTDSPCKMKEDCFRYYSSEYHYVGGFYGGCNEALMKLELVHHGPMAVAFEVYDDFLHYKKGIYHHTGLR
# T1 sequence (P53634 395-463 limits assumed): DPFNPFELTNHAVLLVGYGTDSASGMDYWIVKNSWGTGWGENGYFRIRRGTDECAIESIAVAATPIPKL
row,Structure (SMILES),IC50
1,N#Cc1ccc(-c2ccc(C[C@@H](C#N)NC(=O)[C@@H]3CC(F)(F)CN3)cc2)cc1,79.4 nM
2,N#Cc1ccc(-c2ccc(C[C@@H](C#N)NC(=O)[C@@H]3C[C@@H](F)CN3)cc2)cc1,631 nM

# The remaining lines, values ahead:
row,IC50,Structure (SMILES)
1,50.1 nM,N#Cc1ccc(-c2ccc(C[C@@H](C#N)NC(=O)[C@@H]3CCCN3)cc2)cc1
2,6.31 nM,N#Cc1ccc(-c2ccc(C[C@@H](C#N)NC(=O)[C@@H]3C[C@H](O)CN3)cc2)cc1
3,1.58 nM,N#Cc1ccc(-c2ccc(C[C@@H](C#N)NC(=O)[C@@H]3C[C@H](F)CN3)cc2)cc1
4,0.398 nM,CS[C@@H]1CN[C@H](C(=O)N[C@H](C#N)Cc2ccc(-c3ccc(C#N)cc3)cc2)C1

# Molecular target: T1, Dipeptidyl peptidase 1
# Test: Inhibition of recombinant human DPPI using H-Gly-Arg-AMC as substrate preincubated for 30 mins followed by substrate addition measured after 60 mins by fluorescence plate reader analysis
row,IC50,Structure (SMILES)
1,158 nM,N#C[C@H](Cc1ccc(-c2ccccc2)cc1)NC(=O)[C@@H]1C[C@@H](O)CN1
2,50.1 nM,N#Cc1ccc(-c2ccc(C[C@@H](C#N)NC(=O)[C@@H]3C[C@@H](O)CN3)cc2)cc1
